The species entered for the assay is Rattus norvegicus. The assay can be described thus: Antiandrogen activity in male rats. Format: functional.

Among the data in ChEMBL document CHEMBL1124095, “Resolution of the nonsteroidal antiandrogen 4'-cyano-3-[(4-fluorophenyl)sulfonyl]-2-hydroxy-2-methyl-3'- (trifluoromethyl)-propionanilide and the determination of the absolute configuration of the active enantiomer” (1988) are ED50 values, retold here.

As usually defined, the ED50 is the midpoint of the dose-response relation. Read a low ED50 as an effect at a small dose. Compound `CC(O)(CS(=O)(=O)c1ccc(F)cc1)C(=O)Nc1ccc(C#N)c(C(F)(F)F)c1` (stereo unspecified) [BICALUTAMIDE] came in with a 50% effective dose (ED50) of 0.5 mg/kg. In turn, `C[C@](O)(CS(=O)(=O)c1ccc(F)cc1)C(=O)Nc1ccc(C#N)c(C(F)(F)F)c1` [(R)-BICALUTAMIDE] had an ED50 of 0.5 mg/kg. Compound `CC(O)(CSc1ccc(F)cc1)C(=O)Nc1ccc(C#N)c(C(F)(F)F)c1` (stereo unspecified) had an ED50 of 0.5 mg/kg.

Regarding `C[C@](O)(CSc1ccc(F)cc1)C(=O)Nc1ccc(C#N)c(C(F)(F)F)c1`, the ED50 is 0.5 mg/kg. `C[C@@](O)(CSc1ccc(F)cc1)C(=O)Nc1ccc(C#N)c(C(F)(F)F)c1` returned an ED50 of 30 mg/kg.

`C[C@@](O)(CS(=O)(=O)c1ccc(F)cc1)C(=O)Nc1ccc(C#N)c(C(F)(F)F)c1` [(S)-BICALUTAMIDE] displayed a 50% effective dose (ED50) of 30 mg/kg.
